Source: patent publication US20120028990A1, “3 ARYL OR HETEROARYL-SUBSTITUTED INDOLE DERIVATIVE” (MSD K.K, priority 2010, published 2012)

Each compound was assayed against T1, human QRFP receptor (GPR103) (Homo sapiens, UniProt Q96P65) (assay: QRFP43-binding inhibitory test). Details: inhibition of specific [125I]QRFP43 binding; membranes of CHO-K1 cells expressing GPR103; 25° C., 1 hour.
T1 construct: expressed in transfected cells; host or cells: CHO-K1 NFAT beta-lactamase (Aurora); membrane sample
T1 sequence (Q96P65 1-431): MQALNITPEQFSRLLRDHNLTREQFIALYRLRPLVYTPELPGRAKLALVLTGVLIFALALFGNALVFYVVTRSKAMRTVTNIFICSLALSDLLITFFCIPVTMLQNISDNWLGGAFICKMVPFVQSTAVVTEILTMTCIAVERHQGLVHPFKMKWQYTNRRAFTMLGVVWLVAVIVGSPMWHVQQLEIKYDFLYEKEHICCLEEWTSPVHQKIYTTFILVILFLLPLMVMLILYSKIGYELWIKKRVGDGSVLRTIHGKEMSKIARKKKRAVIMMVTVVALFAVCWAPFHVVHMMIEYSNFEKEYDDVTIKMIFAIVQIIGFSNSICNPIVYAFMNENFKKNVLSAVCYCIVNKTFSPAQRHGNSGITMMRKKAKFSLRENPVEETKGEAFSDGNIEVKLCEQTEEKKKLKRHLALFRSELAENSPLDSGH
From the text: A cDNA sequence [Accession No. NM_198179] coding for a human QRFP receptor (GPR103) was cloned in an expression vector pEF1V5-HisB (by Invitrogen). The resulting expression vector was transfected in a host cell CHO-K1 NFAT (3-Lactamase (by Aurora), according to a cationic lipid process [see Proceedings of the National Academy of Sciences of the United States of America, Vol. 84, p. 7413, 1987], thereby producing a QRFP receptor (GPR103).
A membrane sample prepared from the cells having expressed a QRFP receptor (GPR103) was incubated in an assay buffer (50 mM Tris-HCl, 1 mM EDTA and 0.1% BSA, pH 7.4) along with a test compound and 20,000 cpm [^125I] QRFP43 (by Perkin Elmer) therein, at 25° C. for 1 hour, and then filtered through a glass filter GF/C. After washed with 50 mM Tris-HCl (containing 2 mM EDTA, 10 mM MgCl2 and 0.04% Tween-20) buffer (pH 7.4), the radioactivity on the glass filter was determined. The non-specific binding was determined in the presence of 1 μM peptide QRFP43, and the 50% inhibitory concentration (IC50) of the test compound to the specific [^125I] QRFP43 binding was computed [see Endocrinology, Vol. 131, p. 2090, 1992].

Structure (SMILES)	IC50
CN1CC[C@H]2C[C@H](NC(=O)c3[nH]c4ccc(Cl)cc4c3-c3ccoc3)CC[C@@H]2C1 (single isomer, unassigned) [Example 7, 5-chloro-3-(3-fury)-N-(2-methyldecahydroisoquinolin-6-yl)-1H-indole-2-carboxamide]	9.82 nM
CN1CC[C@H]2C[C@H](NC(=O)c3cc4cc(Cl)ccc4n3C)CC[C@@H]2C1 (single isomer, unassigned) [Reference example 1, 5-chloro-1-methyl-N-(2-methyldecahydroisoquinolin-6-yl)-1H-indole-2-carboxamide]	22.6 nM
CN1CCN(CCNC(=O)c2[nH]c3ccc(Cl)cc3c2-c2cscn2)CC1 [Example 4, 5-chloro-N-[2-(4-methylpiperazin-1-yl)ethyl]-3-(1,3-thiazol-4-yl)-1H-indole-2-carboxamide]	14.2 nM
CN1CCN(CCNC(=O)c2[nH]c3ccc(Cl)cc3c2-c2ccccc2)CC1 [Example 5, 5-chloro-N-[2-(4-methylpiperazin-1-yl)ethyl]-3-phenyl-1H-indole-2-carboxamide]	11.4 nM
CN1CCC(CCNC(=O)c2[nH]c3ccc(Cl)cc3c2-c2ccoc2)CC1 [Example 6, 5-chloro-3-(3-fury)-N-[2-(1-methylpiperidin-4-yl)ethyl]-1H-indole-2-carboxamide]	6.24 nM

The next compounds have a lower IC50 than those just listed; values first:

IC50	Structure (SMILES)
0.58 nM	O=C(NCCCCC(c1ccco1)N1CCCC1)c1[nH]c2ccc(Cl)cc2c1-c1ccoc1 (racemic) [Example 8, 5-chloro-3-(3-fury)-N-[5-(2-furyl)-5-pyrrolidin-1-ylpentyl]-1H-indole-2-carboxamide]
1.06 nM	CNC(CCCCNC(=O)c1[nH]c2ccccc2c1-c1ccoc1)c1ccccn1 (single isomer, unassigned) [Example 9, 3-(3-fury)-N-[5-(methylamino)-5-pyridin-2-ylpentyl]-1H-indole-2-carboxamide]
2.26 nM	CN1CCN(CCNC(=O)c2[nH]c3ccc(Cl)cc3c2-c2ccoc2)CC1 [Example 1, 5-chloro-3-(3-fury)-N-[2-(4-methylpiperazin-1-yl)ethyl]-1H-indole-2-carboxamide]
4.71 nM	CN1CCN(CCNC(=O)c2[nH]c3ccc(Cl)cc3c2-c2ccsc2)CC1 [Example 2, 5-chloro-N-[2-(4-methylpiperazin-1-yl)ethyl]-3-(3-thienyl)-1H-indole-2-carboxamide]
4.68 nM	CN1CCN(CCNC(=O)c2[nH]c3ccc(Cl)cc3c2-c2cccs2)CC1 [Example 3, 5-chloro-N-[2-(4-methylpiperazin-1-yl)ethyl]-3-(2-thienyl)-1H-indole-2-carboxamide]
